What was measured:
[1] = molecular target: T1, ADAMTS4 (Homo sapiens, UniProt O75173); assay: Versicanase assay (V1-5GAG, versikine sandwich ELISA); type: biochemical; details: 100 µM; compared to DMSO control
T1 construct: Human recombinant full-length FLAG-tagged ADAMTS4 and ADAMTS5 were expressed in HEK293T cells; FLAG; made in house; host or cells: HEK293T cells
T1 sequence (O75173 213-837): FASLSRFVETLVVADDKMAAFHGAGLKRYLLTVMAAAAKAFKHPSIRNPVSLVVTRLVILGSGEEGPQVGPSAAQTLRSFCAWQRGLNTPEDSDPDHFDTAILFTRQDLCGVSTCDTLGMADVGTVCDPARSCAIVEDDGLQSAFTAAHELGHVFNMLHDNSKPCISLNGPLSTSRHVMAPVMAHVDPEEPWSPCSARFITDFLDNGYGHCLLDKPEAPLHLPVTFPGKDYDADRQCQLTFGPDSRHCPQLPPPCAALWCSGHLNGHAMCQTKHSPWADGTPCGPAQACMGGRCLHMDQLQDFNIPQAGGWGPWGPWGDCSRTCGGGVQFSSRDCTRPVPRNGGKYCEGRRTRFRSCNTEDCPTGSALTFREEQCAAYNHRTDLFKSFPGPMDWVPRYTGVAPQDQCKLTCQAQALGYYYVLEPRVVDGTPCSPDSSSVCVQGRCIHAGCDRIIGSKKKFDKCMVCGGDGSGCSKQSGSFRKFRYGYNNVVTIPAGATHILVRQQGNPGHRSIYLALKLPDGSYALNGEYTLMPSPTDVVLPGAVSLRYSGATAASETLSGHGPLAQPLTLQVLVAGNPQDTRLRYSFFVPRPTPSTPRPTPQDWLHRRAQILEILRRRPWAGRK

[2] = tested on: human non-OA chondrocytes; assay: Cell viability MTS assay; type: cell-based; details: 72 h, vs DMSO control
Procedure: Non-OA human chondrocytes were isolated from knee cartilage tissues obtained from the Stanmore BioBank, Institute of Orthopaedics, Royal National Orthopaedic Hospital, Stanmore, UK, from 3 donors following informed consent and approval by the Royal Veterinary College Ethics and Welfare Committee (Institutional approval URN 2012 0048 H) as before.
(§1) Cell viability was assessed using CellTiter® 96 Aqueous One Solution Cell Proliferation Assay (Promega, G3582) following the manufacturer’s protocol. The assay is based on the reduction of [3-(4,5-dimethylthiazol-2-yl)-5-(3-carboxymethoxyphenyl)-2-(4-sulfophenyl)-2 H-tetrazolium] (MTS) and phenazine ethosulfate into formazan. Compounds 2 and 4b, GM6001 (Merck, 364206) (10–100 µM), or DMSO control were incubated in 48-well Nunc™ plates (Thermo Fisher Scientific,150687) with HEK293T cells, human non-OA chondrocytes, porcine cartilage explants, or human OA cartilage explants for 72 h. At least 3 independent experiments were carried out with 3 technical replicates each. For experiments involving human samples, independent experiments were carried out on 3 different donors. Absorbance at 490 nm was measured on a SpectraMax i3x Multi-Mode Platform (Molecular Devices). Cell viability was normalized to DMSO controls.

[3] = tested on: human OA cartilage explants; assay: Cell viability MTS assay; type: cell-based; details: 100 µM; 72 h; vs DMSO control
Procedure: Human OA cartilage was obtained from Clatterbridge Hospital, Wirral, UK, following total knee arthroplasty procedures with informed patient consent in full compliance with national and institutional ethical requirements, the United Kingdom Human Tissue Act, and the Declaration of Helsinki (REC 18/WA/0344). Explants (~ 36 mm^3, ~ 40 mg wet volume/weight) from each of 3 donors were placed in one well of a 48-well plate and allowed to rest for 24 h in 1 ml of DMEM containing 10% FBS before use. The medium was replaced, and the cartilage was rested for a further 24 h in 1 ml DMEM at 37 °C before assays.
as §1, with “For experiments involving human samples, independent experiments were carried out on 3 different donors.” left out, “Cell viability was normalized to DMSO controls.” left out

[4] = tested on: A2780-Rab25; assay: OC cell proliferation (DRAQ5 cell numbers); type: cell-based; details: 24 h
Procedure: A2780-Rab25 (3,000 cells per well) were seeded in a 96-well plate and incubated with compound 2 (10 µM and 50 µM) or DMSO control for 24 h. Cells were fixed with 4% paraformaldehyde and stained with 5 µM DRAQ5 in PBS for 1 h at room temperature with gentle rocking. Cells were washed twice with PBS for 30 min and kept in PBS for imaging. […] was detected by the 700 nm channel (200 μm resolution) of a Licor Odyssey Sa instrument. The signal intensity (total intensity minus total background) of each well was quantified in Image Studio Lite software.

CCC(C)N(Cc1cn(CCCO[C@@H]2O[C@H](CO)[C@@H](O[C@@H]3O[C@H](CO)[C@H](O)[C@H](O)[C@H]3O)[C@H](O)[C@H]2NC(C)=O)nn1)S(=O)(=O)c1ccc(-c2ccccc2)cc1 (stereo partly drawn) [compound 2, N-((2R,3R,4R,5 S,6R)-2-(3-(4-((N-(sec-butyl)-[1,1’-biphenyl]-4-sulfonamido)methyl)-1H-1,2,3-triazol-1-yl)propoxy)-4-hydroxy-6-(hydroxymethyl)-5-(((2 S,3R,4 S,5R,6R)-3,4,5-trihydroxy-6-(hydroxymethyl)tetrahydro-2 H-pyran-2-yl)oxy)tetrahydro-2 H-pyran-3-yl)acetamide]
inhibition of ADAMTS4 versicanase activity [1]: sparing ADAMTS4 | inhibition of cell viability ([2]; 50 µM): No significant effect | inhibition of cell viability ([2]; 100 µM): No significant effect | effect on cell viability [3]: no effect on cell viability was observed | A2780-Rab25 cell numbers compared to DMSO control ([4]; 10 µM): did not detect any significant difference | A2780-Rab25 cell numbers compared to DMSO control ([4]; 50 µM): did not detect any significant difference
